According to patent EP4186918A1 (Université de Rennes, priority 2021, dated 2023):
“Also recorded” adds a separate entry of the source.

How the values were obtained:
[1] = Sedimentation after polymerization (aggregative character); assay type: physicochemical; settings: 800 µM peptide; sedimentable peptide after polymerization as % of total concentration
Method: (§1) After thawing, a pre-dilution in milli Q H2O filtered through 0.2 µm was carried out in order to obtain a solution at a concentration close to the working concentration, greater than 1.25 times. This stock solution was left to incubate for 1 hour in a water bath at 25°C, and was then assayed spectrophotometrically and adjusted to the final working concentration of 1.25 times. The polymerization was initiated by adding 1/4 of the volume of 5X fibrillation buffer (50 mM MOPS, 750 mM NaCl, pH = 7.2) for a final concentration of 1X fibrillation buffer (10 mM MOPS, 150 mM NaCl, PH = 7.2). The samples were left to incubate for 1.5-2 hours at 25°C in a water bath. The study of the polymerization by fluorimetry was carried out under the same conditions, except that the 5X polymerization buffer was supplemented with Thioflavin T (ThT) at 100 µM in order to be able to observe the fluorescence. • (a) Determination of the Aggregative Character of the Peptides. […] The concentration of the supernatant was determined using the Beer-Lambert law A = ε x 1 x C; ε (peptides) = 1450 M^-1cm^-1. […] The fluorescence of the sample was then measured immediately after dilution by recording a fluorescence spectrum (470 nm to 600 nm) at an excitation wavelength of 450 nm (Perkin Elmer LS 55, PM 750, slit10).

[2] = Thioflavin T fluorescence after polymerization (amyloidogenic character); assay type: physicochemical; settings: 800 µM peptide; ThT fluorescence normalized to 1p = 100%
Method: as §1

VQIVYK (PHF6) = experiment: Polymerization kinetics of 1p with selected peptides, ThT spectrofluorimetry; assay type: biochemical, human
Method: (§2) After thawing, a pre-dilution of the peptides of interest in sterile water was carried out in order to obtain, for each peptide, a solution at a concentration close to the working concentration. The peptides were then left to incubate at 4°C overnight. On the day of the experiment, the peptide solutions were sonicated for 10 minutes, left to stand for one hour at room temperature, sonicated again for 10 minutes and assayed spectrophotometrically at 280 nm (ε = 1450 M^-1cm^-1). The UV spectra were previously normalized to 0 at 300 nm. The solutions were prepared at concentrations of peptides 1/4 above that desired in the end. The polymerization of VQIVYK was initiated by adding 1/4 of the volume of fibrillation buffer 5X for a final concentration of fibrillation buffer 1X (10 mM MOPS, 150 mM NaCl, pH = 7.2).
The analyses were carried out on a spectrofluorometer (LS 55 from Perkin Elmer) fitted with a 4-cell rack. Black quartz cells (0.2x1.0 cm) were used. Excitation and emission wavelengths were 450 nm and 480 nm, respectively, and the sensitivity (Photomultiplier "PM") was set at 800 V. The size of the slits was varied from 3 nm to 6 nm. Normalization of each kinetics was performed with respect to the position of the cell on the rack.
The results were first smoothed over 10 points with the "smooth" option of the KaleidaGraph software. After normalization with respect to the position of the cells in the rack, each start of kinetics was adjusted to 0 before the addition of the fibrillation buffer. Finally, the results of each kinetics were normalized relative to the fluorescence intensity of the 1p control after 100 minutes of polymerization considered to be 100%.

[3] = Garnier-Delamarche representation combining sedimentation and ThT fluorescence; assay type: physicochemical; settings: from sedimentation and ThT fluorescence
Method: as §1, with “slit10). […]” for “slit10).”

[4] = Polymerization kinetics of selected peptide alone, ThT spectrofluorimetry; assay type: physicochemical; settings: 310 µM, ThT fluorescence
Method: as §2
The analyses were carried out on a spectrofluorometer (LS 55 from Perkin Elmer) fitted with a 4-cell rack. Black quartz cells (0.2x1.0 cm) were used. […]
The results were first smoothed over 10 points with the "smooth" option of the KaleidaGraph software. […] Finally, the results of each kinetics were normalized relative to the fluorescence intensity of the 1p control after 100 minutes of polymerization considered to be 100%.

[5] = Critical Assembly Concentration (CCa) by sedimentation; assay type: physicochemical; settings: batch of VQIVYK used in the study; fibrillation buffer 1X
Method: The polymerization of VQIVYK was initiated by mixing the VQIVYK peptide (at various concentrations, 52 µM to 344 µM) with 1/4 of its volume in fibrillation buffer 5X. Once polymerized, the samples were sedimented at 16,900 g for 15 minutes. The concentration of free peptide was measured by assay nanodrop 800. The concentration of polymerized peptide was thus determined using the following the relation: [1p]pellet = [1p]initial −[1p]supernatant [formula]

% sedimentation [1] [%] | % fluorescence [2] [%] | polymerization of peptide alone [4] | Critical Assembly Concentration (CCa) [5] [µM] | Substance | category of polymerization kinetics of 1p in presence of peptide (VQIVYK (PHF6); [1p] = 155 µM, [selected peptide] = 310 µM) | effect on polymerization of 1p (VQIVYK (PHF6); [1p] = 155 µM, [selected peptide] = 310 µM, thresholds 50% rate, 100% fluorescence intensity) | classification of inhibitory effect (3 categories) (VQIVYK (PHF6); inhibition of PHF6 aggregation) | persistence of inhibitory effect (VQIVYK (PHF6); polymerization followed for 15 hours) | amyloidogenic and aggregative character [3]
0 | 1.3 | do not polymerize on their own | – | Ac-YQIVVK-NH2 [6tp, YQIVVK] | slow compared to 1p alone and which have a lower fluorescence intensity | clearly inhibited; also recorded: marked inhibitory effect | with a strong inhibitory effect | the inhibitory effect persisted | weakly amyloidogenic and weakly aggregative
94 | 100 | – | 32 | Ac-VQIVYK-NH2 [1p, VQIVYK] | – | – | – | – | strong amyloidogenic and self-aggregative potential
